Data as given in the CheMixHub viscosity set.
± gives the uncertainty stated by the source.

Experiment: xn = mol fraction of the nth substance listed

OC1CCCCCCC1 + OCCO
viscosity [mPa·s], 100 kPa
Conditions | 293.15 K | 298.15 K | 303.15 K | 308.15 K | 313.15 K | 318.15 K
x1 = 0.0094 | 20.68 ± 3 | 16.94 ± 3 | 13.8 ± 3 | 11.25 ± 3 | 9.588 ± 3 | 7.888 ± 3
x1 = 0.0394 | 21.39 ± 3 | 17.13 ± 3 | 13.91 ± 3 | 11.23 ± 3 | 9.61 ± 3 | 7.891 ± 3
x1 = 0.0577 | 21.55 ± 3 | 17.25 ± 3 | 13.99 ± 3 | 11.26 ± 3 | 9.627 ± 3 | 7.892 ± 3
x1 = 0.0877 | 21.87 ± 3 | 17.42 ± 3 | 14.13 ± 3 | 11.32 ± 3 | 9.649 ± 3 | 7.894 ± 3
x1 = 0.0999 | 21.97 ± 3 | 17.51 ± 3 | 14.16 ± 3 | 11.34 ± 3 | 9.664 ± 3 | 7.895 ± 3
x1 = 0.196 | 23.21 ± 3 | 18.26 ± 3 | 14.61 ± 3 | 11.54 ± 3 | 9.751 ± 3 | 7.903 ± 3
x1 = 0.3048 | 24.11 ± 3 | 20.09 ± 3 | 15.23 ± 3 | 11.92 ± 3 | 9.992 ± 3 | 7.975 ± 3
x1 = 0.3968 | 28.39 ± 3 | 21.73 ± 3 | 16.84 ± 3 | 13.28 ± 3 | 11.14 ± 3 | 9.079 ± 3
x1 = 0.4992 | 32.09 ± 3.1 | 25.61 ± 3 | 20.38 ± 3 | 16.11 ± 3 | 13.47 ± 3 | 10.83 ± 3
x1 = 0.5876 | 42.39 ± 3.1 | 31.92 ± 3.1 | 25.48 ± 3 | 19.91 ± 3 | 16.45 ± 3 | 13.04 ± 3
x1 = 0.6991 | 59.53 ± 3.1 | 45.81 ± 3.1 | 35.59 ± 3.1 | 27 ± 3 | 21.75 ± 3 | 16.79 ± 3
x1 = 0.7995 | 87.86 ± 3.4 | 66.12 ± 3.1 | 49.1 ± 3.1 | 35.98 ± 3.1 | 28.14 ± 3 | 21.15 ± 3
x1 = 0.8976 | 130 ± 4.9 | 94 ± 3.6 | 71 ± 3.2 | 49.5 ± 3.1 | 39 ± 3.1 | 28 ± 3

C1=CCCCC1 + c1ccccc1
303.15 K, 101 kPa
Conditions | viscosity [mPa·s]
x1 = 0.1198 | 0.57 ± 0.007
x1 = 0.2756 | 0.568 ± 0.007
x1 = 0.3442 | 0.569 ± 0.007
x1 = 0.4509 | 0.566 ± 0.007
x1 = 0.4904 | 0.566 ± 0.007
x1 = 0.6697 | 0.568 ± 0.007
x1 = 0.7561 | 0.568 ± 0.007
x1 = 0.8665 | 0.571 ± 0.007

CC1CCCCC1 + c1ccccc1
303.15 K, 101 kPa
Conditions | viscosity [mPa·s]
x1 = 0.203 | 0.5138 ± 0.0038
x1 = 0.2997 | 0.5057 ± 0.0038
x1 = 0.4008 | 0.5059 ± 0.0038
x1 = 0.5041 | 0.5117 ± 0.0038
x1 = 0.604 | 0.5205 ± 0.0039
x1 = 0.7992 | 0.5611 ± 0.004
x1 = 0.9027 | 0.5961 ± 0.0042

CCCCCl + c1ccccc1
viscosity [mPa·s], 101 kPa
Conditions | 298.15 K | 308.15 K | 318.15 K | 323.15 K
x1 = 0.098 | 0.557 | 0.492 | 0.437 | 0.417
x1 = 0.153 | 0.542 | 0.481 | 0.428 | 0.404
x1 = 0.8 | 0.454 | – | – | 0.358

CCCNCCC + c1ccccc1
viscosity [mPa·s], 101 kPa
Conditions | x1 = 0.0105 | x1 = 0.02072 | x1 = 0.0306 | x1 = 0.03896 | x1 = 0.05078 | x1 = 0.06138 | x1 = 0.07232 | x1 = 0.08121 | x1 = 0.09171
303.15 K | 0.5622 ± 0.0043 | 0.5617 ± 0.0043 | 0.561 ± 0.0043 | 0.5607 ± 0.0043 | 0.5602 ± 0.0043 | 0.5588 ± 0.0043 | 0.5575 ± 0.0043 | 0.5554 ± 0.0043 | 0.5542 ± 0.0043
313.15 K | 0.4915 ± 0.0039 | 0.4902 ± 0.0039 | 0.4897 ± 0.0039 | 0.489 ± 0.0039 | 0.488 ± 0.0039 | 0.4872 ± 0.0039 | 0.4861 ± 0.0039 | 0.4851 ± 0.0039 | 0.4839 ± 0.0039

CCOC(=O)c1ccccc1 + c1ccccc1
298.15 K, 101 kPa
Conditions | viscosity [mPa·s]
x1 = 0.1302 | 0.7244 ± 0.019
x1 = 0.3809 | 1.018 ± 0.027
x1 = 0.522 | 1.2 ± 0.032
x1 = 0.6112 | 1.327 ± 0.035
x1 = 0.7595 | 1.557 ± 0.041
x1 = 0.848 | 1.709 ± 0.045

Cc1cccc([N+](=O)[O-])c1 + c1ccccc1
303.15 K, 101.33 kPa
Conditions | viscosity [mPa·s]
x1 = 0.2 | 0.7 ± 0.015
x1 = 0.395 | 0.85 ± 0.014
x1 = 0.599 | 1.09 ± 0.015
x1 = 0.804 | 1.44 ± 0.016

CNS(C)(=O)=O + c1ccncc1
303.15 K, 101.33 kPa
Conditions | viscosity [mPa·s]
x1 = 0.1002 | 1.039 ± 0.027
x1 = 0.1975 | 1.31 ± 0.034
x1 = 0.2809 | 1.61 ± 0.042
x1 = 0.403 | 2.214 ± 0.058
x1 = 0.5037 | 2.832 ± 0.074
x1 = 0.5728 | 3.346 ± 0.088
x1 = 0.7024 | 4.52 ± 0.12
x1 = 0.8 | 5.676 ± 0.15
x1 = 0.894 | 6.925 ± 0.18

O=C(Nc1ccccc1)c1ccccc1 + c1ccncc1
298.15 K, 101 kPa
Conditions | viscosity [mPa·s]
x1 = 0.0224 | 1.027 ± 0.21
x1 = 0.0382 | 1.121 ± 0.22
x1 = 0.05536 | 1.252 ± 0.25

CCCC[n+]1ccn(C)c1.N#C[S-] + c1ccsc1
100 kPa
Conditions | viscosity [mPa·s]
298.15 K, x1 = 0.754 | 31.95 ± 1.7
308.15 K, x1 = 0.857 | 28.75 ± 1.5
